Test results from EP0223890B1, “Aryl derivatives of pyrrole, their obtention and their use in immunology” (Albert ROLLAND S.A. Société dite, priority 1985, dated 1987).

Key:
[1] = system: cellules spléniques de souris C57BL/6J; assay: rosette test in vitro (sheep red blood cells with mouse spleen cells); assay type: cell-based; conditions: for activité inhibitrice sur la formation des rosettes (comparison in words): compared with acide N-méthyl-4-(naphtoyl-1)-pyrrolyl-2-carboxylique; for activité immuno-stimulante (stimulation de la formation des rosettes): result in words
Excerpt: A) Activité des composés selon l'invention sur le test des rosettes in vitro
L'étude a été réalisée sur globules rouges de mouton avec des cellules spléniques de souris C57BL/6J.

[2] = system: transformation lymphoblastique; assay: lymphoblastic transformation test; assay type: cell-based; conditions: low concentration; vis-à-vis de la Concanavaline A and LPS (Lipopolysaccharides de E. Coli)
Protocol: B) Activité des composés selon l'invention sur le test de transformation lymphoblastique
Sur le test de transformation lymphoblastique, les composés selon l'invention montrent une activité antimitotique, aux doses allant de 5 à 50 µg/ml. […] La mise en évidence d'une activité immuno-stimulante pour certains de ces composés permet d'envisager une autre application thérapeutique.

SMILES	activité inhibitrice sur la formation des rosettes (comparison in words) [1]	activité stimulante à faible concentration [2]	activité immuno-stimulante (stimulation de la formation des rosettes) [1]
Cn1cc(C(=O)c2cc([S+](C)[O-])cc3ccccc23)cc1C(=O)O (centres unmarked) [Acide N-méthyl-4-(3-méthylsulfinylnaphtoyl-1)-pyrrolyl-2-carboxylique]	activité comparable à celle de l'acide N-méthyl-4-(naphtoyl-1 )-pyrrolyl-2-carboxylique	activité stimulante	
O=C(O)c1cc(C(=O)c2cccc3ccccc23)c[nH]1 [acide 4-(naphtoyl-1)pyrrolyl-2-carboxylique]	activité inhibitrice du même ordre que celle du dérivé N-méthylé	activité stimulante	
Cn1cc(C(=O)c2cccc3c2C=CC(O)C3O)cc1C(=O)O (centres unmarked) [acide N-méthyl-4-(5,6-dihydroxy-5,6-dihydronaphtoyl-1)-pyrrolyl-2-carboxylique]	activité comparable à celle de l'acide N-méthyl-4-(naphtoyl-1 )-pyrrolyl-2-carboxylique		
Cn1cc(C(=O)c2cccc3c(O)cccc23)cc1C(=O)O [dérivé N-méthyl-5-hydroxylé, Acide N-méthyl-4-(5-hydroxy-naphtoyl-1)-pyrrolyl-2-carboxylique]	inhibiteur à un degré identique		activité immuno-stimulante à faible concentration
Cn1cc(C(=O)c2cc(O)cc3ccccc23)cc1C(=O)O [dérivé N-méthyl-(3-hydroxy-naphtoyl-1), Acide N-méthyl-4-(3-hydroxy-naphtoyl-1)-pyrrolyl-2-carboxylique]			stimuler la formation des rosettes
